In US11369618B2, “Compounds, compositions and methods for prevention and/or treatment of cancer” (THE TRUSTEES OF THE UNIVERSITY OF PENNSYLVANIA, priority 2016, dated 2022):

Key:
[1] = tested on: pRB, c-myc and GPER in WM46 melanoma cells; test: Western blot of WM46 melanoma cells treated with increasing doses of G-1; format: cell-based, human; conditions: WM46, increasing concentrations
B16F10 melanoma = test: B16F10 melanoma-bearing syngeneic mice treated with subcutaneous G-1, αPD-1 antibody, or both; format: in vivo
Description: FIGS. 14A-14F illustrate the finding that treatment of melanoma bearing mice with G-1 and αPD-1 immunotherapy dramatically extends survival. FIG. 14A: Experimental timeline of B16F10 bearing mice treated with vehicle or G-1, as well as αPD-1 antibody or isotype antibody control (2A3), n=10 per group. FIG. 14B: Tumor volumes of treatment groups at Day 14, * denotes significance One-way ANOVA with Tukey's multiple comparison test. FIG. 14C: Survival curve of mice treated with vehicle or G-1, as well as isotype antibody control (2A3) or αPD-1 antibody. FIG. 14D: Experimental outline of YUMM1.7 bearing mice treated with vehicle or G-1, as well as isotype antibody control (2A3) or αPD-1 antibody. Treatment was started at day 14 after tumors reached 4-5 mm in diameter. n=5 per group. FIG. 14E: Tumor volumes over time of treatment groups. FIG. 14F: Survival curve of mice treated with vehicle or G-1, as well as αPD-1 antibody or isotype antibody control (2A3).
To determine whether G-1 has therapeutic utility as a systemically delivered agent with or without immune checkpoint inhibitors, B16F10 melanoma-bearing syngeneic mice were treated with subcutaneous G-1, αPD-1 antibody, or both, and survival compared to matched mice treated with vehicle and isotype antibody controls (in particular, non-specific isotype control antibody 2A3) (FIG. 14A). Total tumor volume was assessed after 5-50 days.

B16F10 melanoma cells = test: melanoma cells treated with G-1, HDACi, or in combination (Western blot, B16F10 proliferation assay); format: cell-based
Description: FIG. 16B: Western blot of p-RB, c-Myc, and H3K56ac in melanoma cells after treatment with G-1, HDACi, or in combination. FIG. 16C: Proliferation assay of B16F10 melanoma cells after treatment with G-1, HDACi, or in combination.
Histone acetyl marks are removed by several histone deacetylases (HDACs), which are aberrantly regulated in many cancers. Although HDAC inhibitors are approved as anticancer agents for cutaneous lymphoma, myeloma, and […], their utility in melanoma is unclear. […] HDAC efficacy may have been limited by the fact that trials were conducted without a differentiation driver to promote formation of acetylation marks on histones or other critical oncoproteins (such as c-Myc) that would then be stabilized by the HDACi. Without wishing to be limited by any theory, the anticancer effects of HDAC inhibitors can be potentiated by combination drug regimens that also promote histone acetylation at functionally critical sites. HDACi and GPER agonists independently promote melanoma cell differentiation, and also cooperate to potentiate the activity of each other (FIGS. 16B-16C).

PDAC tumors = test: PDAC tumor bearing mice treated with G-1; format: in vivo, mouse; conditions: tumors grown 18 days, dosing on 3 consecutive days, follow-up 4 days; 2 independent PDAC cell lines
LLC1 tumors = test: LLC1 tumor bearing mice treated with subcutaneous G-1, αPD-1 antibody, or both; format: in vivo, mouse
Procedure: FIGS. 18A-18G illustrate the finding that GPER signaling reduces NSCLC cell proliferation in vitro and in vivo and has combinatorial effects with αPD-1 immunotherapy. FIG. 18A: Western blot for pCREB of LLC1 cells treated with 500 nM G-1 for 30 minutes. FIG. 18B: Proliferation assay of LLC1 treated with 500 nM G-1 for 6 days. FIG. 18C: Western blot for c-Myc of LLC1 cells treated with 500 nM G-1 for 6 days. FIG. 18D: Western blot for c-Myc of LLC1 cells treated with 500 nM G-1 over a time-course. […] FIG. 18F: Tumor volumes over time of LLC1 tumor bearing mice treated with vehicle or G-1, as well as αPD-1 antibody or isotype antibody control (2A3). FIG. 18G: Survival curve of mice treated with vehicle or G-1, as well as αPD-1 antibody or isotype antibody control (2A3).
To test whether G-1 had activity in vivo and synergizes with PD-1 immunotherapy, LLC1 tumors were grown in mice that were treated with subcutaneous G-1, αPD-1 antibody, or both, and survival compared to matched mice treated with vehicle and isotype antibody controls.

How did the GPER expression [1] turn out when `CC(=O)c1ccc2c(c1)[C@@H]1C=CC[C@@H]1[C@H](c1cc3c(cc1Br)OCO3)N2` (relative stereo) [Compound G-1, rel-1-[4-(6-bromo-1,3-benzodioxol-5-yl)-3aR,4S,5,9bS-tetrahydro-3H-cyclopenta[c]quinolin-8-yl]-ethanone] was run?
The GPER expression was “elevation”.

And the c-myc levels [1]?
The c-myc levels was “reduction”.

What about the pRB levels [1] of the same compound?
The pRB levels was “reduction”.

And the tumor growth (B16F10 melanoma; B16F10-bearing mice)?
Its tumor growth is “slowed tumor growth”.

And the survival (B16F10 melanoma; B16F10-bearing mice, subcutaneous G-1)?
Its survival is “extended survival to the same extent as αPD-1”.

And the tolerability (B16F10 melanoma; mice)?
The tolerability was “well tolerated”.

What about the “combined effect of G-1 and HDACi in melanoma cells” value (B16F10 melanoma cells) of the same compound?
The value was “synergizes with HDAC inhibitors”.

What about the “tumor size (tumor weights)” value (PDAC tumors) of the same compound?
Its value is “significantly smaller”.

And the survival (LLC1 tumors)?
Its survival is “did not alter survival significantly”.

And the tumor growth (LLC1 tumors)?
Its tumor growth is “slowed tumor growth initially”.
